According to ChEMBL document CHEMBL4665869, “New thiazolopyrimidine as anticancer agents: Synthesis, biological evaluation, DNA binding, molecular modeling and ADMET study” (Bioorg Med Chem Lett, 2020):
In brackets after ≈: the same amount, converted by molar mass.

Assays:
NCI-H322M = assay: Growth inhibition of human NCI-H322M cells at 10 uM relative to control; format: functional; details: read-out: GI
UACC-62 = assay: Growth inhibition of human UACC-62 cells at 10 uM relative to control; format: functional; details: read-out: GI
A549 = assay: Growth inhibition of human A549 cells at 10 uM relative to control; format: functional; details: read-out: GI
PC-3 = assay: Growth inhibition of human PC-3 cells at 10 uM relative to control; format: functional; details: read-out: GI
CCRF-CEM = assay: Growth inhibition of human CCRF-CEM cells at 10 uM relative to control; format: functional; details: read-out: GI
SW-620 = assay: Growth inhibition of human SW-620 cells at 10 uM relative to control; format: functional; details: read-out: GI
SNB-19 = assay: Growth inhibition of human SNB-19 cells at 10 uM relative to control; format: functional; details: read-out: GI
NCI/ADR-RES = assay: Growth inhibition of human NCI/ADR-RES cells at 10 uM relative to control; format: functional; details: read-out: GI
T47D = assay: Growth inhibition of human T47D cells at 10 uM relative to control; format: functional; details: read-out: GI
SR = assay: Growth inhibition of human SR cells at 10 uM relative to control; format: functional; details: read-out: GI
HT-29 = assay: Growth inhibition of human HT-29 cells at 10 uM relative to control; format: functional; details: read-out: GI
U-251 = assay: Growth inhibition of human U-251 cells at 10 uM relative to control; format: functional; details: read-out: GI
IGROV-1 = assay: Growth inhibition of human IGROV-1 cells at 10 uM relative to control; format: functional; details: read-out: GI
A498 = assay: Growth inhibition of human A498 cells at 10 uM relative to control; format: functional; details: read-out: GI
MDA-MB-231 = assay: Growth inhibition of human MDA-MB-231 cells at 10 uM relative to control; format: functional; details: read-out: GI
LOX IMVI = assay: Growth inhibition of human LOX IMVI cells at 10 uM relative to control; format: functional; details: read-out: GI
MCF7 = assay: Growth inhibition of human MCF7 cells at 10 uM relative to control; format: functional; details: read-out: GI
NCI-H23 = assay: Growth inhibition of human NCI-H23 cells at 10 uM relative to control; format: functional; details: read-out: GI
DNA = assay: Displacement of methyl green from DNA (unknown origin) assessed as DNA intercalation after 24 hrs by colorimetric assay; format: nucleic-acid assay
UACC-257 = assay: Growth inhibition of human UACC-257 cells at 10 uM relative to control; format: functional; details: read-out: GI
MDA-MB-468 = assay: Growth inhibition of human MDA-MB-468 cells at 10 uM relative to control; format: functional; details: read-out: GI
MOLT-4 = assay: Growth inhibition of human MOLT-4 cells at 10 uM relative to control; format: functional; details: read-out: GI
HOP-62 = assay: Growth inhibition of human HOP-62 cells at 10 uM relative to control; format: functional; details: read-out: GI
ACHN = assay: Growth inhibition of human ACHN cells at 10 uM relative to control; format: functional; details: read-out: GI
RPMI-8226 = assay: Growth inhibition of human RPMI-8226 cells at 10 uM relative to control; format: functional; details: read-out: GI
NCI-H522 = assay: Growth inhibition of human NCI-H522 cells at 10 uM relative to control; format: functional; details: read-out: GI
SK-MEL-28 = assay: Growth inhibition of human SK-MEL-28 cells at 10 uM relative to control; format: functional; details: read-out: GI
HCT-116 = assay: Growth inhibition of human HCT-116 cells at 10 uM relative to control; format: functional; details: read-out: GI
M14 = assay: Growth inhibition of human M14 cells at 10 uM relative to control; format: functional; details: read-out: GI
SF-268 = assay: Growth inhibition of human SF-268 cells at 10 uM relative to control; format: functional; details: read-out: GI
HL-60(TB) = assay: Growth inhibition of human HL-60(TB) cells at 10 uM relative to control; format: functional; details: read-out: GI
TK-10 = assay: Growth inhibition of human TK-10 cells at 10 uM relative to control; format: functional; details: read-out: GI
Hs-578T = assay: Growth inhibition of human Hs-578T cells at 10 uM relative to control; format: functional; details: read-out: GI
HOP-92 = assay: Growth inhibition of human HOP-92 cells at 10 uM relative to control; format: functional; details: read-out: GI
Malme-3M = assay: Growth inhibition of human Malme-3M cells at 10 uM relative to control; format: functional; details: read-out: GI
SK-MEL-5 = assay: Growth inhibition of human SK-MEL-5 cells at 10 uM relative to control; format: functional; details: read-out: GI
SNB-75 = assay: Growth inhibition of human SNB-75 cells at 10 uM relative to control; format: functional; details: read-out: GI
OVCAR-8 = assay: Growth inhibition of human OVCAR-8 cells at 10 uM relative to control; format: functional; details: read-out: GI
SK-OV-3 = assay: Growth inhibition of human SK-OV-3 cells at 10 uM relative to control; format: functional; details: read-out: GI
DU-145 = assay: Growth inhibition of human DU-145 cells at 10 uM relative to control; format: functional; details: read-out: GI
COLO 205 = assay: Growth inhibition of human COLO 205 cells at 10 uM relative to control; format: functional; details: read-out: GI
NCI-H460 = assay: Growth inhibition of human NCI-H460 cells at 10 uM relative to control; format: functional; details: read-out: GI
K562 = assay: Growth inhibition of human K562 cells at 10 uM relative to control; format: functional; details: read-out: GI
SN12C = assay: Growth inhibition of human SN12C cells at 10 uM relative to control; format: functional; details: read-out: GI
NCI-H226 = assay: Growth inhibition of human NCI-H226 cells at 10 uM relative to control; format: functional; details: read-out: GI
HCC 2998 = assay: Growth inhibition of human HCC 2998 cells at 10 uM relative to control; format: functional; details: read-out: GI
OVCAR-4 = assay: Growth inhibition of human OVCAR-4 cells at 10 uM relative to control; format: functional; details: read-out: GI
HCT-15 = assay: Growth inhibition of human HCT-15 cells at 10 uM relative to control; format: functional; details: read-out: GI
SF-539 = assay: Growth inhibition of human SF-539 cells at 10 uM relative to control; format: functional; details: read-out: GI
CAKI-1 = assay: Growth inhibition of human CAKI-1 cells at 10 uM relative to control; format: functional; details: read-out: GI
KM12 = assay: Growth inhibition of human KM12 cells at 10 uM relative to control; format: functional; details: read-out: GI
MDA-MB-435 = assay: Growth inhibition of human MDA-MB-435 cells at 10 uM relative to control; format: functional; details: read-out: GI
SF-295 = assay: Growth inhibition of human SF-295 cells at 10 uM relative to control; format: functional; details: read-out: GI
UO-31 = assay: Growth inhibition of human UO-31 cells at 10 uM relative to control; format: functional; details: read-out: GI
786-0 = assay: Growth inhibition of human 786-0 cells at 10 uM relative to control; format: functional; details: read-out: GI
RXF 393 = assay: Growth inhibition of human RXF 393 cells at 10 uM relative to control; format: functional; details: read-out: GI
SK-MEL-2 = assay: Growth inhibition of human SK-MEL-2 cells at 10 uM relative to control; format: functional; details: read-out: GI
BT-549 = assay: Growth inhibition of human BT-549 cells at 10 uM relative to control; format: functional; details: read-out: GI
OVCAR-5 = assay: Growth inhibition of human OVCAR-5 cells at 10 uM relative to control; format: functional; details: read-out: GI

With `COc1cc(/C=C/C2=CC(c3cc(OC)c(OC)c(OC)c3)N3C(C)=CSC3=N2)cc(OC)c1OC` (centres undefined) the inhibition of growth at 10 µM (NCI-H322M) was less than 10%, the inhibition of growth at 10 µM (UACC-62) was less than 10% and the inhibition of growth at 10 µM (A549) was less than 10%. It also gave an inhibition of growth at 10 µM (PC-3) of less than 10%, an inhibition of growth at 10 µM (CCRF-CEM) of less than 10% and an inhibition of growth at 10 µM (SW-620) of less than 10%. It also gave an inhibition of growth at 10 µM (SNB-19) of less than 10%, an inhibition of growth at 10 µM (NCI/ADR-RES) of less than 10% and an inhibition of growth at 10 µM (T47D) of less than 10%. It also gave an inhibition of growth at 10 µM (SR) of less than 10%, an inhibition of growth at 10 µM (HT-29) of less than 10% and an inhibition of growth at 10 µM (U-251) of less than 10%. For the same compound, the inhibition of growth at 10 µM (IGROV-1) was less than 10%, the inhibition of growth at 10 µM (A498) was less than 10% and the inhibition of growth at 10 µM (MDA-MB-231) was less than 10%. It also gave an inhibition of growth at 10 µM (LOX IMVI) of less than 10%, an inhibition of growth at 10 µM (MCF7) of less than 10% and an inhibition of growth at 10 µM (NCI-H23) of less than 10%. The IC50 (DNA) was 91.48 µg/mL (≈ 179 µM), the inhibition of growth at 10 µM (UACC-257) was less than 10% and the inhibition of growth at 10 µM (MDA-MB-468) was less than 10%. For the same compound, the inhibition of growth at 10 µM (MOLT-4) was less than 10%, the inhibition of growth at 10 µM (HOP-62) was less than 10% and the inhibition of growth at 10 µM (ACHN) was less than 10%. For the same compound, the inhibition of growth at 10 µM (RPMI-8226) was less than 10%, the inhibition of growth at 10 µM (NCI-H522) was 14.5% and the inhibition of growth at 10 µM (SK-MEL-28) was less than 10%. The inhibition of growth at 10 µM (HCT-116) was less than 10%, the inhibition of growth at 10 µM (M14) was less than 10% and the inhibition of growth at 10 µM (SF-268) was less than 10%. For the same compound, the inhibition of growth at 10 µM (HL-60(TB)) was less than 10%, the inhibition of growth at 10 µM (TK-10) was less than 10% and the inhibition of growth at 10 µM (Hs-578T) was less than 10%. The inhibition of growth at 10 µM (HOP-92) was less than 10%, the inhibition of growth at 10 µM (Malme-3M) was less than 10% and the inhibition of growth at 10 µM (SK-MEL-5) was less than 10%. For the same compound, the inhibition of growth at 10 µM (SNB-75) was 12.5%, the inhibition of growth at 10 µM (OVCAR-8) was less than 10% and the inhibition of growth at 10 µM (SK-OV-3) was less than 10%. It also gave an inhibition of growth at 10 µM (DU-145) of less than 10%, an inhibition of growth at 10 µM (COLO 205) of less than 10% and an inhibition of growth at 10 µM (NCI-H460) of less than 10%. It also gave an inhibition of growth at 10 µM (K562) of less than 10%, an inhibition of growth at 10 µM (SN12C) of less than 10% and an inhibition of growth at 10 µM (NCI-H226) of less than 10%. It also gave an inhibition of growth at 10 µM (HCC 2998) of less than 10%, an inhibition of growth at 10 µM (OVCAR-4) of less than 10% and an inhibition of growth at 10 µM (HCT-15) of less than 10%. For the same compound, the inhibition of growth at 10 µM (SF-539) was less than 10%, the inhibition of growth at 10 µM (CAKI-1) was less than 10% and the inhibition of growth at 10 µM (KM12) was less than 10%. It also gave an inhibition of growth at 10 µM (MDA-MB-435) of less than 10%, an inhibition of growth at 10 µM (SF-295) of less than 10% and an inhibition of growth at 10 µM (UO-31) of less than 10%. The inhibition of growth at 10 µM (786-0) was less than 10%, the inhibition of growth at 10 µM (RXF 393) was less than 10% and the inhibition of growth at 10 µM (SK-MEL-2) was less than 10%. The inhibition of growth at 10 µM (BT-549) was less than 10% and the inhibition of growth at 10 µM (OVCAR-5) was less than 10%.
